Data on 40 molecules can be found in patent publication US7776847B2, “Benzisothiazoles useful for treating or preventing HCV infection” (priority 2005, dated 2010).

Each structure is given as a SMILES string. Where only a bound is given, the exact number is not on record here.

The subject of one experiment is HCV replicon. Description: HCV replicon luciferase reporter assay. The note with it: Hepatitis C virus, Table 5; read-out: IC50. In kind it is cell-based. An outline of the steps:
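Replicon-bearing dividing cells seeded at 5,000–7,500 cells/well, grown 24 h at 37° C/5% CO2, then exposed to test compound at various concentrations for a further 24–48 h. Replication/translation read by luciferase reporter; IC50 taken as compound amount giving 50% reduction in luciferase activity.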
In general terms: A replicon is a self-replicating genome or part of one, used to study replication in cells.
Take `O=S(=O)(c1ccc(CNCCCNc2nsc3ccccc23)cc1)N1CCCC1` [Compound 260, N^1-(benzo[d]isothiazol-3-yl)-N^3-(4-(pyrrolidin-1-ylsulfonyl)benzyl)propane-1,3-diamine]: the IC50 – broadly, the midpoint of a concentration-inhibition curve – is above 5 µM.

Turning to `FC(F)(F)c1cccnc1NCCCNc1nsc2ccccc12` [Compound 276, N^1-(benzo[d]isothiazol-3-yl)-N^3-(3-(trifluoromethyl)pyridin-2-yl)propane-1,3-diamine], the IC50 was below 5 µM.

Turning to `COc1ccc(-c2ccc(C(=O)NCCCNc3nsc4cccc(S(N)(=O)=O)c34)cc2)cc1` [Compound 401, 4′-methoxy-N-(3-(4-sulfamoylbenzo[d]isothiazol-3-ylamino)propyl)biphenyl-4-carboxamide], the half-inhibitory concentration (IC50) is above 5 µM.

As to `COc1ccc(-c2ccc(C(=O)NCCNc3nsc4ccccc34)cc2)c(C)c1` [Compound 366, N-(2-(benzo[d]isothiazol-3-ylamino)ethyl)-4′-methoxy-2′-methylbiphenyl-4-carboxamide], the IC50 was below 5 µM.

As to `COc1ccc(-c2ccc(CN(CCCNc3nsc4ccccc34)C(=O)N(C)C)cc2)cc1` [Compound 315, 1-(3-(benzo[d]isothiazol-3-ylamino)propyl)-1-((4′-methoxybiphenyl-4-yl)methyl)-3,3-dimethylurea], the 50% inhibitory concentration (IC50) is below 5 µM.

For the molecule `O=S(=O)(NCCCNc1nsc2ccccc12)c1ccc(Oc2ccc(Cl)cc2)cc1` [Entry 223, N-(3-(benzo[d]isothiazol-3-ylamino)propyl)-4-(4-chlorophenoxy)benzenesulfonamide], the IC50 was below 5 µM.

Take `Nc1ccc2sc(C(=O)NCCCNc3nsc4ccccc34)cc2c1` [Compound 459, 5-amino-N-(3-(benzo[d]isothiazol-3-ylamino)propyl)benzo[b]thiophene-2-carboxamide]: the IC50 was below 5 µM.

For `CC(C)(C)OC(=O)N1CC=C(c2cccc(C(=O)NCCCNc3nsc4ccccc34)c2)CC1` [Compound 390, tert-butyl 4-(3-(3-(benzo[d]isothiazol-3-ylamino)propylcarbamoyl)phenyl)-5,6-dihydropyridine-1(2H)-carboxylate], the IC50 was below 5 µM.

As to `COc1cc(F)ccc1-c1cccc(C(=O)NCCCNc2nsc3ccccc23)c1` [Compound 368, N-(3-(benzo[d]isothiazol-3-ylamino)propyl)-4′-fluoro-6′-methoxybiphenyl-3-carboxamide], the IC50 was below 5 µM.

Regarding `O=C(NCCNc1nsc2ccccc12)c1ccc(C(F)(F)F)cc1F` [Compound 354, N-(2-(benzo[d]isothiazol-3-ylamino)ethyl)-2-fluoro-4-(trifluoromethyl)benzamide], the IC50 was below 5 µM.

As for `O=C(NCCCNc1nsc2ccccc12)c1cccc(Br)n1` [Compound 419, N-(3-(benzo[d]isothiazol-3-ylamino)propyl)-6-bromopicolinamide], the IC50 is below 5 µM.

For `CC(C)[C@H](N)C(=O)NCCNc1nsc2ccccc12` [Entry 75, (S)-2-Amino-N-(2-(benzo[d]isothiazol-3-ylamino)ethyl)-3-methylbutanamide], the IC50 is above 5 µM.

With `COc1ccc(-c2ccccc2CNCCCNc2nsc3ccccc23)cc1OC` [Compound 313, N^1-(benzo[d]isothiazol-3-yl)-N^3-((3′,4′-dimethoxybiphenyl-2-yl)methyl)propane-1,3-diamine], the half-inhibitory concentration (IC50) is below 5 µM.

For `O=C(NCCNc1nsc2ccccc12)c1ccccc1C(F)(F)F` [Compound 351, N-(2-(benzo[d]isothiazol-3-ylamino)ethyl)-2-(trifluoromethyl)benzamide], the IC50 is below 5 µM.

In the case of `O=S(=O)(NCCCNc1nsc2ccccc12)c1ccc(Br)cc1Cl` [Compound 262, N-(3-(benzo[d]isothiazol-3-ylamino)propyl)-4-bromo-2-chlorobenzenesulfonamide], the IC50 is below 5 µM.

In the case of `CC(C)Oc1ccccc1-c1cccc(C(=O)NCCCNc2nsc3ccccc23)c1` [Compound 376, N-(3-(benzo[d]isothiazol-3-ylamino)propyl)-6′-isopropoxybiphenyl-3-carboxamide], the IC50 is below 5 µM.

Take `O=C(NCCNc1nsc2ccccc12)c1cc(F)cc(C(F)(F)F)c1` [Compound 353, N-(2-(benzo[d]isothiazol-3-ylamino)ethyl)-3-fluoro-5-(trifluoromethyl)benzamide]: the IC50 is below 5 µM.

For the molecule `O=C(NCCNc1nsc2ccccc12)c1cccc(-c2ccc3ccccc3c2)c1` [Compound 373, N-(2-(benzo[d]isothiazol-3-ylamino)ethyl)-3-(naphthalen-2-yl)benzamide], the IC50 was below 5 µM.

With `c1ccc2c(NCCCNCc3ccc(N4CCCC4)cc3)nsc2c1` [Compound 338, N^1-(benzo[d]isothiazol-3-yl)-N^3-(4-(pyrrolidin-1-yl)benzyl)propane-1,3-diamine], the IC50 was below 5 µM.

Consider `O=Cc1ccc(C(=O)NCCNc2nsc3ccccc23)cc1` [Compound 415, N-(2-(benzo[d]isothiazol-3-ylamino)ethyl)-4-formylbenzamide], for which the IC50 was above 5 µM.

In the case of `FC(F)(F)c1ccc(NCCCNc2nsc3ccccc23)nc1` [Entry 228, N-(3-(5-(trifluoromethyl)pyridin-2-ylamino)propyl)benzo[d]isothiazol-3-amine], the IC50 is below 5 µM.

As for `CC(C)(C)OC(=O)N[C@H](C(=O)NCCNc1nsc2ccc(Cl)cc12)c1ccccc1` [Compound 425, (S)-tert-butyl 2-(2-(5-chlorobenzo[d]isothiazol-3-ylamino)ethylamino)-2-oxo-1-phenylethylcarbamate], the IC50 is below 5 µM.

As to `O=C(c1ccccc1)c1cccnc1C(=O)NCCNc1nsc2ccccc12` [Entry 12, N-(2-(Benzo[d]isothiazol-3-ylamino)ethyl)-3-benzoylpicolinamide], the IC50 is below 5 µM.

As for `COc1ccc(CNCCCNc2nsc3ccccc23)cc1O` [Compound 304, 5-((3-(benzo[d]isothiazol-3-ylamino)propylamino)methyl)-2-methoxyphenol], the IC50 is below 5 µM.

Turning to `CC(C)NC(=O)c1cccc(C(=O)NCCNc2nsc3ccccc23)c1` [Compound 430, N^1-(2-(benzo[d]isothiazol-3-ylamino)ethyl)-N^3-isopropylisophthalamide], the IC50 was below 5 µM.

With `COc1ccc(-c2ccc(C(=O)NCCCNc3nsc4ccc(-c5ccccc5)cc34)cc2)cc1` [Compound 405, 4′-methoxy-N-(3-(5-phenylbenzo[d]isothiazol-3-ylamino)propyl)biphenyl-4-carboxamide], the IC50 was below 5 µM.

As for `Cn1c(C(=O)NCCNc2nsc3ccccc23)cc2ccccc21` [Compound 412, N-(2-(benzo[d]isothiazol-3-ylamino)ethyl)-1-methyl-1H-indole-2-carboxamide], the IC50 was below 5 µM.

As to `FC(F)(F)Oc1ccc(-c2ccc(CNCCCNc3nsc4ccccc34)cc2)cc1` [Compound 336, N^1-(benzo[d]isothiazol-3-yl)-N^3-((4′-(trifluoromethoxy)biphenyl-4-yl)methyl)propane-1,3-diamine], the IC50 was below 5 µM.

`O=C(CC1CC1)NCCNc1nsc2ccccc12` [Entry 71, N-(2-(Benzo[d]isothiazol-3-ylamino)ethyl)-2-cyclopropylacetamide]: the IC50 is above 5 µM.

On to `CCCCCOc1ccc(C(=O)NCCNc2nsc3ccc(Cl)cc23)cc1` [Compound 423, N-(2-(5-chlorobenzo[d]isothiazol-3-ylamino)ethyl)-4-(pentyloxy)benzamide], for which the IC50 was below 5 µM.

Turning to `COc1cccnc1NCCCNc1nsc2ccccc12` [Compound 275, N^1-(benzo[d]isothiazol-3-yl)-N^3-(3-methoxypyridin-2-yl)propane-1,3-diamine], the IC50 is below 5 µM.

For `Cc1ccc(OC(C)C)c(-c2ccc(C(=O)NCCNc3nsc4ccccc34)cc2)c1` [Compound 363, N-(2-(benzo[d]isothiazol-3-ylamino)ethyl)-2′-isopropoxy-5′-methylbiphenyl-4-carboxamide], the IC50 is below 5 µM.

In the case of `c1ccc(CN2CCCC(NCCCNc3nsc4ccccc34)C2)cc1` (stereo not shown) [Compound 306, N^1-(benzo[d]isothiazol-3-yl)-N^3-(1-benzylpiperidin-3-yl)propane-1,3-diamine], the IC50 was below 5 µM.

For the molecule `COc1ccc(-c2ccc(CN(CCCNc3nsc4ccccc34)C(=O)CN3CCOCC3)cc2)cc1` [Compound 255, N-(3-(benzo[d]isothiazol-3-ylamino)propyl)-N-((4′-methoxybiphenyl-4-yl)methyl)-2-morpholinoacetamide], the IC50 is below 5 µM.

For the molecule `CC(C)Oc1ccccc1-c1ccc(C(=O)NCCNc2nsc3ccccc23)cc1` [Compound 377, N-(2-(benzo[d]isothiazol-3-ylamino)ethyl)-2′-isopropoxybiphenyl-4-carboxamide], the IC50 was below 5 µM.

In the case of `CS(=O)(=O)c1ccc(-c2cccc(C(=O)NCCCNc3nsc4ccccc34)n2)cc1` [Compound 440, N-(3-(benzo[d]isothiazol-3-ylamino)propyl)-6-(4-(methylsulfonyl)phenyl)picolinamide], the IC50 was below 5 µM.

`O=C(NCCCNc1nsc2ccccc12)c1ccc(Br)cc1` [Compound 289, N-(3-(benzo[d]isothiazol-3-ylamino)propyl)-4-bromobenzamide]: the IC50 is below 5 µM.

Take `c1ccc(-c2ncc(CNCCCNc3nsc4ccccc34)[nH]2)cc1` [Compound 329, N^1-(benzo[d]isothiazol-3-yl)-N^3-((2-phenyl-1H-imidazol-4-yl)methyl)propane-1,3-diamine]: the IC50 is below 5 µM.

For `COc1ccc(-c2ccc(C(=O)NCCCNc3nsc4ccc(-c5ccc(OC(C)C)cc5)cc34)cc2)cc1` [Compound 409, N-(3-(5-(4-isopropoxyphenyl)benzo[d]isothiazol-3-ylamino)propyl)-4′-methoxybiphenyl-4-carboxamide], the IC50 was below 5 µM.

The same experiment, now with this note: Table 5; read-out: IC50.
As to `CC(C)(C)NS(=O)(=O)c1ccc2c(NCCCN)nsc2c1` [Compound 508, 3-(3-aminopropylamino)-N-tert-butylbenzo[d]isothiazole-6-sulfonamide], the IC50 is above 5 µM.
